Where a SMILES comes first, the peptide text is derived from it. The star is where a group is joined. ξ: configuration not given here. Lipoyl(6ξ) = O=C(CCCCC1CCSS1)*
Assays:
Sirt2 [1] = target: T1, Sirt2 (Homo sapiens, UniProt Q8IXJ6); assay: HPLC delipoylation assay of lipoylated peptides with Sirt2; type: biochemical; settings: Sirt2 + NAD+, 37° C., monitored at 280 nm after 40 min
T1 construct: made in house
T1 sequence (Q8IXJ6 1-389): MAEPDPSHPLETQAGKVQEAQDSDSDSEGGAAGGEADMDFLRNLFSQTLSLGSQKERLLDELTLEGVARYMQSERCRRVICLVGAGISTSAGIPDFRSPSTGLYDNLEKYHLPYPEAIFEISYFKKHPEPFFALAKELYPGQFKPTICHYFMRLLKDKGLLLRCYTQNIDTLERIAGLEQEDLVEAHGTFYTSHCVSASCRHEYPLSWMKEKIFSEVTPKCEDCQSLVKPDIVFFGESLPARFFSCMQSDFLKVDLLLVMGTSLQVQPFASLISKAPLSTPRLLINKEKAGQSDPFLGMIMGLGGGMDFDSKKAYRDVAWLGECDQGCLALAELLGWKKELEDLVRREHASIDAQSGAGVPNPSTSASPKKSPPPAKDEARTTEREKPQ
Procedure: A total of 11 lipoylated peptides (KAlip-1 to KAlip-11) were synthesised. The peptide sequences were selected from proteins that have been reported as being lipoylated (PDH, KDH, BCKDH, and GCV) and non-lipoylated proteins (e.g., histone). The peptides were synthesized with a standard Fmoc solid phase synthesis approach and characterized by LC-MS. The delipoylation activity was then determined by an HPLC assay. Compared with non-putative peptides, putative lipoylated peptides appeared to be more efficiently hydrolyzed by Sirt2. For example, the delipoylated product of KAlip-1 (derived from histone) after 40 min was determined to be 59%, which is less than that of putative lipoylated substrates such as KAlip-5 and KAlip-6 (derived from PDH).
The lipoylated peptides KAlip-1 to -11 were incubated with sirtuin and cofactor NAD+ at 37° C. in 20 mM HEPES buffer (pH 8.0) containing 150 mM NaCl, 1 mM MgCl2, and 2.7 mM KCl. The reaction volume was set to 50 μL. At each specific reaction time point, the reaction mixtures were quenched by adding 250 μL of methanol. The reactions were vortexed and centrifuged. Supernatant was collected and then analysed by reverse phase HPLC. The new peak generated was collected for ESI-MS or MALDI-TOF-MS analysis directly.

Sirt2 [2] = target: T1, Sirt2; assay: In-gel fluorescence photo-crosslinking labelling of recombinant Sirt2; type: binding; settings: competition with probe KPlip
Procedure: The labelling efficiency of KPlip with recombinant Sirt2 was investigated. The Sirt2 enzyme was first incubated with either KPlip or a negative control probe, KPlip-C(lacking lipoylation), followed by 15 min of UV irradiation. Following click chemistry with rhodamine azide (Rh—N3), the reaction mixtures were resolved by SDS-PAGE and analysed by in-gel fluorescence scanning.
A further selectivity study was performed. […] To examine whether lipoic acid of KPlip forms a disulfide bond with cysteine residues in Sirt2, excessive reducing reagent TCEP was added to the solution containing Sirt2 and KPlip prior to UV irradiation.
20 μM azide reagent was added to the protein samples labelled by KPlip and KPlip-C. Tris(2-carboxyethyl)phosphine (0.4 mM), tris(3-hydroxypropyltriazolylmethyl)amine (40 μM), and CuSO 4 (0.4 mM) were then added. The reaction was kept at room temperature for 2 h.
After click chemistry reaction with rhodamine-azide, chilled acetone was added to the reaction mixtures. The reaction was then placed in a −20° C. freezer for 1 h to precipitate the proteins. The pellets were washed with cold methanol and air-dried. Finally, they were redissolved in 1×SDS loading buffer by heating at 95° C. for 10 min and then resolved by SDS-PAGE. The labelled proteins were visualized using a FLA-9000 Fujifilm scanner (Ex=532 nm).

[3] = substrate: CSCC[C@H](NC(=O)[C@H](C)NC(=O)[C@H](CCC(=O)O)NC(=O)[C@@H](N)C(C)C)C(=O)N[C@@H](CCCCNC(=O)CCCCC1CCSS1)C(=O)N[C@@H](CC(C)C)C(=O)N[C@@H](CCSC)C(=O)N[C@@H](CC(N)=O)C(=O)N[C@@H](CCC(=O)O)C(=O)N[C@@H](Cc1c[nH]c2ccccc12)C(=O)N[C@@H](Cc1c[nH]c2ccccc12)C(=O)O; assay: Steady-state kinetic study of lipoylated peptides with Sirt2 (HPLC); type: biochemical; settings: other: Sirt2, 400 μM NAD+, HEPES pH 8.0, 37° C.
Procedure: (§1) The delipoylation activity of HDAC8 was further examined using KAlip-5 and KAlip-1. […] A more detailed assessment of the enzymatic delipoylation reaction was performed. Time-dependent experiments and steady-state kinetics studies were conducted of KAlip-1, 5, 8, and 10 with Sirt2 (Table 1).
(§2) To determine the values of kcat, and Km, purified Sirt2 with 400 μM NAD+ was incubated with different concentrations of lipoylated peptide (0-120 μM) in 20 mM HEPES buffer (pH 8.0) containing 150 mM NaCl, 1 mM MgCl2, and 2.7 mM KCl at 37° C. for 10 min (KAlip-1 and KAlip-10) or 5 min (KAlip-5 and KAlip-8). The reactions were quenched by adding 250 μL of methanol and then applied for HPLC analysis with a linear gradient of 5% to 85% B (acetonitrile) for 30 min. The generated delipoylated product was quantified based on the peak area monitored at 280 nm. The kcat, and Km, values were calculated by curve-fitting Vinitiai/[E] versus [S]. The experiments were conducted in duplicate.

[4] = substrate: CC[C@H](C)[C@H](NC(=O)[C@@H](NC(=O)[C@H](C)NC(=O)[C@H](CCCCNC(=O)CCCCC1CCSS1)NC(=O)[C@H](CC(=O)O)NC(=O)[C@@H](NC(=O)[C@H](CCC(=O)O)NC(=O)[C@@H](NC(=O)[C@@H](N)CCC(=O)O)[C@@H](C)CC)[C@@H](C)O)[C@@H](C)O)C(=O)NCC(=O)N[C@@H](Cc1c[nH]c2ccccc12)C(=O)N[C@@H](Cc1c[nH]c2ccccc12)C(=O)O; assay: as above; type: biochemical; settings: other: Sirt2, 400 μM NAD+, HEPES pH 8.0, 37° C.
Procedure: as §1, §2

[5] = substrate: C[C@H](NC(=O)[C@@H](NC(=O)[C@H](CCC(N)=O)NC(=O)[C@@H](N)CCCCN)[C@@H](C)O)C(=O)N[C@@H](CCCNC(=N)N)C(=O)N[C@@H](CCCCNC(=O)CCCCC1CCSS1)C(=O)N[C@@H](CO)C(=O)N[C@H](C(=O)NCC(=O)NCC(=O)N[C@@H](Cc1c[nH]c2ccccc12)C(=O)N[C@@H](Cc1c[nH]c2ccccc12)C(=O)O)[C@@H](C)O; assay: as above; type: biochemical; settings: other: Sirt2, 400 μM NAD+, HEPES pH 8.0, 37° C.
Procedure: as §1, §2

[6] = substrate: CC(C)[C@H](N)C(=O)N[C@@H](CCC(N)=O)C(=O)N[C@@H](CO)C(=O)N[C@@H](CC(=O)O)C(=O)N[C@@H](CCCCNC(=O)CCCCC1CCSS1)C(=O)N[C@@H](C)C(=O)N[C@@H](CO)C(=O)N[C@H](C(=O)N[C@H](C(=O)N[C@@H](Cc1c[nH]c2ccccc12)C(=O)N[C@@H](Cc1c[nH]c2ccccc12)C(=O)O)[C@@H](C)O)C(C)C; assay: as above; type: biochemical; settings: other: Sirt2, 400 μM NAD+, HEPES pH 8.0, 37° C.
Procedure: as §1, §2

| Molecule | Delipoylation product (HPLC yield of delipoylated product) (Sirt2 [1]) [%] | other results |
| --- | --- | --- |
| EIETDK(lip)AVVTWW [KAlip-6] | 100 |  |
| SDPIIK(lip)GSGTWW [KAlip-3] | 98 |  |
| EALPKK(lip) TGGPWW [KAlip-9] | 100 |  |
| CSCC[C@H](NC(=O)[C@H](C)NC(=O)[C@H](CCC(=O)O)NC(=O)[C@@H](N)C(C)C)C(=O)N[C@@H](CCCCNC(=O)CCCCC1CCSS1)C(=O)N[C@@H](CC(C)C)C(=O)N[C@@H](CCSC)C(=O)N[C@@H](CC(N)=O)C(=O)N[C@@H](CCC(=O)O)C(=O)N[C@@H](Cc1c[nH]c2ccccc12)C(=O)N[C@@H](Cc1c[nH]c2ccccc12)C(=O)O (stereo partly drawn) [KAlip-11, VEAMK(lip)LMNE WW] (H-VEAMK(Lipoyl(6ξ))LMNEWW-OH) | 94 |  |
| VKSK(lip)ATNL WW [KAlip-2] | 97 |  |
| CC(C)[C@H](N)C(=O)N[C@@H](CCC(N)=O)C(=O)N[C@@H](CO)C(=O)N[C@@H](CC(=O)O)C(=O)N[C@@H](CCCCNC(=O)CCCCC1CCSS1)C(=O)N[C@@H](C)C(=O)N[C@@H](CO)C(=O)N[C@H](C(=O)N[C@H](C(=O)N[C@@H](Cc1c[nH]c2ccccc12)C(=O)N[C@@H](Cc1c[nH]c2ccccc12)C(=O)O)[C@@H](C)O)C(C)C (stereo partly drawn) [KAlip-8, VQSD K(lip)ASVTWW] (H-VQSDK(Lipoyl(6ξ))ASVTWW-OH) | 100 |  |
| C[C@H](NC(=O)[C@@H](NC(=O)[C@H](CCC(N)=O)NC(=O)[C@@H](N)CCCCN)[C@@H](C)O)C(=O)N[C@@H](CCCNC(=N)N)C(=O)N[C@@H](CCCCNC(=O)CCCCC1CCSS1)C(=O)N[C@@H](CO)C(=O)N[C@H](C(=O)NCC(=O)NCC(=O)N[C@@H](Cc1c[nH]c2ccccc12)C(=O)N[C@@H](Cc1c[nH]c2ccccc12)C(=O)O)[C@@H](C)O (stereo partly drawn) [KAlip-1, KQTARK(lip)STGGWW] (H-KQTARK(Lipoyl(6ξ))STGGWW-OH) | 59 |  |
| SGASEK(lip)DIVHSGWW [KAlip-4] | 100 |  |
| VQSDKlipASVT [lipoylated peptide competitor] |  | Inhibition of KPlip labelling of Sirt2 (Sirt2 [2]): can be inhibited |
| EIETDK(lip) TSVQWW [KAlip-7] | 65 |  |
| CC[C@H](C)[C@H](NC(=O)[C@@H](NC(=O)[C@H](C)NC(=O)[C@H](CCCCNC(=O)CCCCC1CCSS1)NC(=O)[C@H](CC(=O)O)NC(=O)[C@@H](NC(=O)[C@H](CCC(=O)O)NC(=O)[C@@H](NC(=O)[C@@H](N)CCC(=O)O)[C@@H](C)CC)[C@@H](C)O)[C@@H](C)O)C(=O)NCC(=O)N[C@@H](Cc1c[nH]c2ccccc12)C(=O)N[C@@H](Cc1c[nH]c2ccccc12)C(=O)O (stereo partly drawn) [KAlip-5, EIETDK(lip)ATIGWW] (H-EIETDK(Lipoyl(6ξ))ATIGWW-OH) | 100 |  |
| Sirt2 (Homo sapiens) (protein, made in house) MAEPDPSHPLETQAGKVQEAQDSDSDSEGGAAGGEADMDFLRNLFSQTLSLGSQKERLLDELTLEGVARYMQSERCRRVICLVGAGISTSAGIPDFRSPSTGLYDNLEKYHLPYPEAIFEISYFKKHPEPFFALAKELYPGQFKPTICHYFMRLLKDKGLLLRCYTQNIDTLERIAGLEQEDLVEAHGTFYTSHCVSASCRHEYPLSWMKEKIFSEVTPKCEDCQSLVKPDIVFFGESLPARFFSCMQSDFLKVDLLLVMGTSLQVQPFASLISKAPLSTPRLLINKEKAGQSDPFLGMIMGLGGGMDFDSKKAYRDVAWLGECDQGCLALAELLGWKKELEDLVRREHASIDAQSGAGVPNPSTSASPKKSPPPAKDEARTTEREKPQ |  | Km [3]: 13.5 µM; Km [4]: 18.9 µM; Km [5]: 9.7 ± 0.2 µM; Km [6]: 26.2 ± 3.3 µM |

— patent US12146183B2, “Compound and a method for identifying a protein using said compound” (CITY UNIVERSITY OF HONG KONG, priority 2020, dated 2024)
